Laboratory results reported in the supplement of paper PMC10307832.

Assays:
Test in all cases: relative viability (nuclei count vs DMSO), 5 days (fraction); higher = more cells survive
FH535 + Decitabine = compound: CC1=C(C=CC(=C1)[N+](=O)[O-])NS(=O)(=O)C2=C(C=CC(=C2)Cl)Cl [FH535] + Nc1ncn([C@H]2C[C@H](O)[C@@H](CO)O2)c(=O)n1 [Decitabine] (partner 2 µM)
Outline: (§1)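 Cells from lung cancer lines were seeded into 1536-well plates and, one day later, dosed by pin tool. Treatments were either a single drug or a fixed dose of an anchor drug with five library-drug doses (not always all listed) in √10 steps. After 5 days, nuclei were stained in a one-step fixation (final 0.05% Triton X-100, 1% formaldehyde, 1 ug/ml Hoechst) and counted on 4× images, and relative viability is the treated-to-vehicle nuclei ratio, as the median of duplicate plates.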

FH535 + Foretinib = compound: CC1=C(C=CC(=C1)[N+](=O)[O-])NS(=O)(=O)C2=C(C=CC(=C2)Cl)Cl [FH535] + COc1cc2c(Oc3ccc(NC(=O)C4(C(=O)Nc5ccc(F)cc5)CC4)cc3F)ccnc2cc1OCCCN1CCOCC1 [Foretinib] (partner 0.25 µM)
Outline: as §1

FH535 + Navitoclax = compound: CC1=C(C=CC(=C1)[N+](=O)[O-])NS(=O)(=O)C2=C(C=CC(=C2)Cl)Cl [FH535] + CC1(C)CCC(c2ccc(Cl)cc2)=C(CN2CCN(c3ccc(C(=O)NS(=O)(=O)c4ccc(N[C@H](CCN5CCOCC5)CSc5ccccc5)c(S(=O)(=O)C(F)(F)F)c4)cc3)CC2)C1 [Navitoclax] (partner 0.5 µM)
Outline: as §1

FH535 + Dasatinib = compound: CC1=C(C=CC(=C1)[N+](=O)[O-])NS(=O)(=O)C2=C(C=CC(=C2)Cl)Cl [FH535] + Cc1nc(Nc2ncc(C(=O)Nc3c(C)cccc3Cl)s2)cc(N2CCN(CCO)CC2)n1 [Dasatinib] (partner 0.075 µM)
Outline: as §1

FH535 + Olaparib = compound: CC1=C(C=CC(=C1)[N+](=O)[O-])NS(=O)(=O)C2=C(C=CC(=C2)Cl)Cl [FH535] + O=C(c1cc(Cc2n[nH]c(=O)c3ccccc23)ccc1F)N1CCN(C(=O)C2CC2)CC1 [Olaparib] (partner 8 µM)
Outline: as §1

Cell Line | relative viability (FH535 + Decitabine; first compound 0.04 µM) | relative viability (FH535 + Decitabine; first compound 0.1265 µM) | relative viability (FH535 + Decitabine; first compound 0.4 µM) | relative viability (FH535 + Decitabine; first compound 1.265 µM) | relative viability (FH535 + Foretinib; first compound 0.04 µM) | relative viability (FH535 + Foretinib; first compound 0.1265 µM) | relative viability (FH535 + Foretinib; first compound 0.4 µM) | relative viability (FH535 + Foretinib; first compound 1.265 µM) | relative viability (FH535 + Navitoclax; first compound 0.04 µM) | relative viability (FH535 + Navitoclax; first compound 0.1265 µM) | relative viability (FH535 + Navitoclax; first compound 0.4 µM) | relative viability (FH535 + Navitoclax; first compound 1.265 µM) | relative viability (FH535 + Dasatinib; first compound 0.04 µM) | relative viability (FH535 + Dasatinib; first compound 0.1265 µM) | relative viability (FH535 + Dasatinib; first compound 0.4 µM) | relative viability (FH535 + Dasatinib; first compound 1.265 µM) | relative viability (FH535 + Olaparib; first compound 0.04 µM) | relative viability (FH535 + Olaparib; first compound 0.1265 µM) | relative viability (FH535 + Olaparib; first compound 0.4 µM) | relative viability (FH535 + Olaparib; first compound 1.265 µM)
NCI-H3122 | 0.338 | 0.393 | 0.46 | 0.413 | 0.888 | 0.901 | 0.924 | 0.931 | 1.02 | 1.05 | 1.01 | 0.947 | 0.703 | 0.782 | 0.713 | 0.719 | 0.631 | 0.6 | 0.581 | 0.48
NCI-H2009 | 0.339 | 0.363 | 0.434 | 0.391 | 1.27 | 1.22 | 1.18 | 0.929 | 1.11 | 1.13 | 1.09 | 0.847 | 0.256 | 0.307 | 0.269 | 0.277 | 0.666 | 0.652 | 0.662 | 0.552
HCC-78 | 0.541 | 0.673 | 0.573 | 0.529 | 0.565 | 0.561 | 0.608 | 0.51 | 0.612 | 1.04 | 0.782 | 0.718 | 0.33 | 0.514 | 0.342 | 0.427 | 0.695 | 0.764 | 0.885 | 0.673
NCI-H358 | 0.151 | 0.219 | 0.205 | 0.182 | 0.647 | 0.727 | 0.63 | 0.481 | – | – | – | – | 0.141 | 0.15 | 0.159 | 0.143 | 0.558 | 0.611 | 0.589 | 0.635
NCI-H1793 | 0.449 | 0.571 | 0.487 | 0.422 | 0.347 | 0.775 | 0.798 | 0.458 | 0.49 | 0.573 | 0.469 | 0.325 | 0.321 | 0.342 | 0.296 | 0.339 | 0.801 | 0.94 | 0.826 | 0.454
HCC-366 | 0.308 | 0.342 | 0.335 | 0.293 | 0.648 | 1.06 | 0.958 | 0.516 | 0.942 | 1.08 | 0.995 | 0.976 | 0.571 | 0.713 | 0.632 | 0.487 | 0.302 | 0.333 | 0.373 | 0.332
ABC-1 | 1.07 | 0.997 | 0.994 | 1.01 | 1.04 | 0.849 | 0.969 | 0.907 | – | – | – | – | 0.584 | 0.619 | 0.4 | 0.36 | 0.705 | 0.896 | 0.94 | 0.37
NCI-H1703 | – | – | – | – | 0.416 | – | 0.324 | 0.344 | 1.28 | 1.18 | 1.21 | 0.88 | – | – | – | – | 0.429 | 0.461 | 0.486 | 0.392
LCLC-103H | 0.672 | 0.787 | 0.718 | 0.503 | 0.789 | 0.755 | 0.776 | 0.551 | – | – | – | – | 0.441 | 0.369 | 0.353 | 0.384 | 0.757 | 0.774 | 0.75 | 0.474
